The target in assay [1] is T1, 5-HT1A cloned receptor (Homo sapiens, UniProt P08908).
T1 construct: expressed in transfected cells
T1 sequence (P08908 1-422): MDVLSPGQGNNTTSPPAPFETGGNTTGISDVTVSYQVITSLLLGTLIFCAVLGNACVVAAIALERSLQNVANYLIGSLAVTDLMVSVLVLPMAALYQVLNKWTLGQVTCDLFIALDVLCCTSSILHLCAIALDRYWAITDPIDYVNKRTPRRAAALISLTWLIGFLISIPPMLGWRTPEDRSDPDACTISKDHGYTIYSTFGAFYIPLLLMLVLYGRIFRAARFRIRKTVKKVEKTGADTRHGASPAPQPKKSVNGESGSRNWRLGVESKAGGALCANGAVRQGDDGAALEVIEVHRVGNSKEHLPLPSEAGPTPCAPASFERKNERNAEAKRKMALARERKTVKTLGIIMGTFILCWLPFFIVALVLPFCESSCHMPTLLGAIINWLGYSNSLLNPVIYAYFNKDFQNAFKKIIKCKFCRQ
In words: [35S]-GTPγS binding assay on 5-HT1A cloned receptor membrane fragments. The conditions noted are these: maximum agonist response defined by excess 8-OH-DPAT. It is filed as biochemical. Here is the method:
The [^35S]-GTPγS binding assay was similar to that used by Lazareno and Birdsall, Br. J. Pharmacol. 109:1120 (1993). Briefly, 5-HT1A cloned receptor membrane fragments (as used for 5-HT1A receptor binding assays) were stored at -70 °C until needed. When needed, membranes were rapidly thawed, centrifuged at 40,000 x g for 10 minutes and resuspended at 4 °C for 10 minutes in assay buffer (25 mM HEPES, 3 mM MgCl2, 100 mM NaCI, 1 mM EDTA, 10 uM GDP, […] DTT, pH 8.0). These membranes were then incubated for 30 min at 30 °C with [^35S]GTPgS (1 nM) in the presence of vehicle, test compound (one to eight concentrations), or excess 8-OH-DPAT to define maximum agonist response. All reactions are terminated by the addition of ice cold Tris buffer followed by rapid filtration using a Tom Tech® filtration device to separate bound from free [^35S]GTPgS. Agonists produce an increase in the amount of [^35S]GTPgS bound whereas antagonists produce no increase in binding. Bound radioactivity was counted and analyzed as above.

In assay [2] the target is T2, human 5-HT1A receptor subtype (Homo sapiens, UniProt P08908).
T2 construct: expressed in transfected cells
T2 sequence (P08908 1-422): T1 sequence (P08908 1-422)
As to the kind of experiment: 5-HT1A receptor binding assay with [3H]8-OH-DPAT on membranes of 5-HT1A.CHO cells. The conditions noted are these: for 5-HT1A (% @10nM): given instead of a Ki; for pKi: [3H]8-OH-DPAT 1.5 nM, CHO cell membranes. On the procedure: (§1) The PCR cloning of the human 5-HT1A receptor subtype from a human genomic library has been described previously Chanda et al., Mol. Pharmacol., 43:516 (1993). A stable Chinese hamster ovary cell line expressing the human 5-HT1A receptor subtype (5-HT1A.CHO cells) was employed throughout this study. Cells were maintained in DMEM supplemented with 10% foetal calf serum, non-essential amino acids and penicillin/ streptomycin.
Cells were grown to 95-100% confluency as a monolayer before membranes were harvested for binding studies. Cells were gently scraped from the culture plates, transferred to centrifuge tubes, and washed twice by centrifugation (2000 rpm for 10 min., 4°C) in buffer (50 mM Tris; pH 7.5). The resulting pellets were aliquoted and placed at -80°C. On the day of assay, the cells were thawed on ice, and resuspended in buffer. Studies were conducted using [^3H]8-OH-DPAT as the radioligand. The binding assay was performed in 96 well microtiter plates in a final total volume of 250 µL of buffer. Competition experiments were performed by using 7 concentrations of unlabelled drug and a final ligand concentration of 1.5 nM . Non-specific binding was determined in the presence of 10 µM 5HT. Saturation analysis was conducted by using [^3H]8-OH-DPAT at concentrations ranging from 0.3-30 nM. Following a 30 minute incubation at room temperature, the reaction was terminated by the addition of ice cold buffer and rapid filtration using a M-96 Brandel Cell Harvester (Gaithersburg, MD) through a GF/B filter presoaked for 30 minutes in 0.5% polyethyleneimine.

Assay [3] addresses T3, serotonin transporter (Rattus norvegicus, UniProt P31652).
T3 construct: frontal cortical membranes prepared from male Sprague-Dawley rats; from tissue; host or cells: rat frontal cortex membranes
As to the kind of experiment: serotonin transporter affinity, 3H-paroxetine binding to frontal cortical membranes. The arrangement: species or system male Sprague-Dawley rats. Here is the method: Briefly, frontal cortical membranes prepared from male Sprague-Dawley rats were incubated with ^3H-paroxetine (0.1 nM) for 60 min at 25°C. All tubes also contained either vehicle, test compound (one to eight concentrations), or a saturating concentration of fluoxetine (10 µM) to define specific binding. All reactions are terminated by the addition of ice cold Tris buffer followed by rapid filtration using a Tom Tech filtration device to separate bound from free ^3H-paroxetine.

Assay [4] addresses T2, human 5-HT1A receptor subtype. As to the kind of experiment: cAMP formation in forskolin-treated cells (cAMP SPA assay). The conditions noted are these: forskolin 1 uM, 10 min at 37°C. It is filed as cell-based. On the procedure:
as §1
The following assays were performed by incubating the cells with DMEM containing 25 mM HEPES, 5 mM theophylline and 10 µM pargyline for a period of 20 minutes at 37°C. Functional activity was assessed by treating the cells with forskolin (1 uM final concentration) followed immediately by test compound (6 concentrations) for an additional 10 min at 37°C. In separate experiments, 6 concentrations of antagonist were preincubated for 20 min prior to the addition of 10 nM 8-OH-DPAT and forskolin. The reaction was terminated by removal of the media and addition of 0.5 ml ice cold assay buffer. Plates were stored at -20°C prior to assessment of cAMP formation by a cAMP SPA assay (Amersham).
Background: Changes in cAMP serve as a functional read-out for many G protein-coupled receptors.

The mark [5] stands for this setting: 3H-paroxetine 0.1 nM, rat frontal cortical membranes, read-out: ST (Ki).

The text below walks through data of EP1068184B1, “N-ARYLOXYETHYLAMINE DERIVATIVES FOR THE TREATMENT OF DEPRESSION” (Wyeth, priority 1998, dated 1999).

pKi: −log10 of the molar value. Like-named read-outs stand apart in the source and are kept apart here.

T3 sequence (P31652 whole entry): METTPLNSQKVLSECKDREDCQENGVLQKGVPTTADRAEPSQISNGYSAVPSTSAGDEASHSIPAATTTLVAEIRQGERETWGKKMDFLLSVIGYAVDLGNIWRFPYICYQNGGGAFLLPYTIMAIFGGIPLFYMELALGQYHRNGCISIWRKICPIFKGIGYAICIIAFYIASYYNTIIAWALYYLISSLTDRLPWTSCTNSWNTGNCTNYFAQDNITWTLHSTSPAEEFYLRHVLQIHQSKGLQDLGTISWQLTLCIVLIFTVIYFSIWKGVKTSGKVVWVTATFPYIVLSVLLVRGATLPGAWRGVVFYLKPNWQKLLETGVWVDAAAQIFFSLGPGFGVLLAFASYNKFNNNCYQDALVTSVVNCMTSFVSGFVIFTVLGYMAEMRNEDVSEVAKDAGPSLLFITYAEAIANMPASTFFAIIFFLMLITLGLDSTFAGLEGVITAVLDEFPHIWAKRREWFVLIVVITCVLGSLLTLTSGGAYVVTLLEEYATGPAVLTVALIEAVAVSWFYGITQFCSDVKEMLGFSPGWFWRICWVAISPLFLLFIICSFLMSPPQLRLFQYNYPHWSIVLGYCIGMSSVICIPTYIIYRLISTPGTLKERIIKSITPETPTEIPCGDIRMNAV

As a reminder, the Emax is the maximal effect, on the per cent scale that the assay sets. One may read the pKi as the Ki on a negative log10 scale, so that one unit is a factor of ten. In turn, `COc1cc(F)c(F)cc1OCCN[C@H]1CC[C@@H](c2c[nH]c3ccc(F)cc32)CC1` [Example 11a, (1,4-cis)-[2-(4,5-Difluoro-2-methoxy-phenoxy)-ethyl]-[4-(5-fluoro-1H-indol-3-yl)-cyclohexyl]-amine] had an Emax in assay [1] of 0%. Besides, the “5-HT1A (% @10nM)” value in assay [2] is 0%@10nM. In addition, the pKi in assay [3] is 8.77.

On to `Fc1ccc2[nH]cc([C@H]3CC[C@H](NCCOc4cccc5[nH]ccc45)CC3)c2c1` [Example 3b], for which the Emax in assay [1] stood at 62%; in assay [4] it was 90%. The pKi in assay [2] is 8.97; in assay [3] (setting [5]) it was 8.60.

In assay [1], `Fc1ccc2c(c1)[nH]cc2[C@H]1CC[C@H](NCCOc2cccc3c2OCCO3)CC1` [Example 4d] displayed an Emax of 74.8%. The pKi in assay [2] is 7.78; in assay [3] (setting [5]), 9.68.

Consider `Fc1ccc2[nH]cc([C@H]3CC[C@H](NCCOc4cc(Cl)cc5[nH]cnc45)CC3)c2c1` [Example 8a, [2-(6-Chloro-1H-benzoimidazol-4-yloxy)-ethyl]-[(1,4-trans)-4-(5-fluoro-1H-indol-3-yl)-cyclohexyl]-amine], for which the Emax in assay [1] stood at 0%. The pKi was 7.90 in assay [2] and 8.80 in assay [3] (setting [5]).

In the case of `Fc1cc2c(c(OCCN[C@H]3CC[C@H](c4c[nH]c5ccc(F)cc54)CC3)c1)OCCC2` [Example 5b, [2-(6-Fluoro-chroman-8-yloxy)-ethyl]-[(1,4-trans)-4-(5-fluoro-1H -indol-3-yl)-cyclohexyl]-amine], the Emax worked out at 22% in assay [1] and 0% in assay [4]. Further, the pKi in assay [2] is 7.71; in assay [3] (setting [5]), 8.82.

Consider `N#Cc1ccc2[nH]cc([C@H]3CC[C@H](NCCOc4cc(F)cc5c4OCCC5)CC3)c2c1` [Example 5f, 3-{(1,4-trans)-4-[2-(6-Fluoro-chroman-8-yloxy)-ethylamino]-cyclohexyl}-1H-indole-5-carbonitrile], for which the Emax in assay [1] came to 30%; in assay [4] it was 0%. Moreover, the values for the pKi in assay [2] and in assay [3] (setting [5]) were 8.00 and 8.59, respectively.

In the case of `COc1cc(F)ccc1OCCN[C@H]1CC[C@H](c2c[nH]c3ccc(F)cc32)CC1` [Example 9b, [(1,4-trans)-4-(5-Fluoro-1H-indol-3-yl)-cyclohexyl]-[2-(4-fluoro-2-methoxy-phenoxy)-ethyl]-amine], in assay [1], the Emax was found to be 39.5%. Moreover, the pKi in assay [2] is 7.11; in assay [3] (setting [5]) it was 8.48.

As for `OC1(CNCCOc2cccc3[nH]ccc23)CCC(c2c[nH]c3ccc(F)cc23)CC1` (centres unmarked) [Example 13, (1,4)-4-(5-Fluoro-1H-indol-3-yl)-1-([2-(1H-indol-4-yloxy)-ethylamino]-methyl}-cyclohexanol], in assay [1], the Emax came out at 85%.

In turn, `Cc1nc2c(OCCN[C@H]3CC[C@H](c4c[nH]c5ccc(F)cc54)CC3)cc(Cl)cc2[nH]1` [Example 8b, [2-(6-Chloro-2-methyl-1H-benzoimidazol-4-yloxy)-ethyl]-[(1,4-trans)-4-(5-fluoro-1H-indol-3-yl)-cyclohexyl]-amine] gave an Emax in assay [4] of 0%. Besides, the values for the pKi in assay [2] and in assay [3] (setting [5]) were 7.72 and 9.28, respectively.

The compound `COc1cc(F)ccc1OCCN[C@H]1CC[C@@H](c2c[nH]c3ccc(F)cc32)CC1` [Example 9a, [(1,4-cis)-4-(5-Fluoro-1H-indol-3-yl)-cyclohexyl]-[2-(4-fluoro-2-methoxy-phenoxy)-ethyl]-amine] had an Emax in assay [1] of 45%. For the same compound, the “5-HT1A (% @10nM)” value in assay [2] is listed as 16%@10nM. Moreover, in assay [3] (setting [5]), the pKi was 8.75.

In assay [1], `COc1cc(F)c(F)cc1OCCN[C@H]1CC[C@H](c2c[nH]c3ccc(F)cc32)CC1` [Example 11b, (1,4-trans)-[2-(4,5-Difluoro-2-methoxy-phenoxy)-ethyl]-[4-(5-fluoro-1H-indol-3-yl)-cyclohexyl]-amine] registered an Emax of 0%. Further, the pKi in assay [2] is 7.60; in assay [3], 9.15.

For the compound `Fc1ccc2[nH]cc([C@H]3CC[C@H](NCCOc4cccc5c4OCCO5)CC3)c2c1` [Example 4b], the maximal response (Emax) in assay [4] was 61%. Further, the pKi in assay [2] was 7.72; in assay [3] (setting [5]), 8.95.

As for `COc1cc(S(C)(=O)=O)c(F)cc1OCCN[C@H]1CC[C@H](c2c[nH]c3ccc(F)cc32)CC1` [Example 12, [(1,4-trans)-4-(5-Fluoro-1H-indol-3-yl)-cyclohexyl]-[2-(5-fluoro-4-methanesulfonyl-2-methoxy-phenoxy)-ethyl]-amine], the Emax in assay [1] was 0%. Moreover, the “5-HT1A (% @10nM)” value in assay [2] amounted to 0%@10nM. The pKi in assay [3] was 9.33.

On to `COc1ccc(F)cc1OCCN[C@H]1CC[C@H](c2c[nH]c3cc(F)ccc32)CC1` [Example 2b, [(1,4-trans)-4-(6-Fluoro-1H-indol-3-yl)-cyclohexyl]-[2-(5-fluoro-2-methoxy-phenoxy)-ethyl]-amine], for which the maximum response (Emax) in assay [1] and in assay [4] was 0% in each case. Besides, the pKi is 7.32 in assay [2] and 9.38 in assay [3] (setting [5]).
